From patent US5385941A, “Salts/ion pairs of non-steroidal anti-inflammatory drugs in various dosage forms” (Warner-Lambert Company, priority 1993, dated 1995)
Values after ≈ are worked out from the molar mass of the structure shown.

Assay: physchem
Details: water

- solubility: 30 µg/mL (≈ 101 µM)
Compound: Cc1ccc(Cl)c(Nc2ccccc2C(=O)O)c1Cl [MA, Meclofenamic acid]
